In ChEMBL document CHEMBL4000195, “Design and synthesis of novel 7-aminosubstituted pyrido[2,3-b]pyrazines exhibiting anti-breast cancer activity” (Eur J Med Chem, 2017):

Columns and labels:
Assay type in all cases: functional
[1] = system: MCF7; assay: Cytotoxicity against human MCF7 cells at 5 uM by MTT assay
[2] = system: MDA-MB-231; assay: Cytotoxicity against human MDA-MB-231 cells at 5 uM by MTT assay
[3] = system: MDA-MB-231; assay: Cytotoxicity against human MDA-MB-231 cells at 10 uM by MTT assay
[4] = system: T47D; assay: Cytotoxicity against human T47D cells at 10 uM by MTT assay
[5] = system: MCF7; assay: Cytotoxicity against human MCF7 cells at 10 uM by MTT assay
[6] = system: HCC1954; assay: Cytotoxicity against human HCC1954 cells at 10 uM by MTT assay
[7] = system: T47D; assay: Cytotoxicity against human T47D cells at 5 uM by MTT assay
[8] = system: HCC1954; assay: Cytotoxicity against human HCC1954 cells at 5 uM by MTT assay

Measured: Activity

Cc1nc2nc(Sc3ccccc3)cnc2cc1NC(=O)c1ccc([N+](=O)[O-])cc1
<50%: all assays above

Cc1nc2nc(Sc3ccccc3)cnc2cc1NC(=O)Nc1cccc(C(F)(F)F)c1
<50%: all assays above

Cc1nc2nccnc2cc1NC(=O)CN(C)C
<50%: all assays above

Cc1nc2nc(Sc3ccccc3)cnc2cc1N
<50%: all assays above

Cc1nc2nc(Sc3ccccc3)cnc2cc1NC(=O)Nc1ccc(F)c(Cl)c1
<50%: all assays above

Cc1ccc(C(=O)Nc2cc3nccnc3nc2C)cc1
<50%: all assays above

Cc1ccc(C(=O)Nc2cc3ncc(Sc4ccccc4)nc3nc2C)cc1
<50%: all assays above

Cc1nc2nccnc2cc1NC(=O)c1ccccc1
<50%: all assays above

Cc1nc2nccnc2cc1NC(=O)CN1CCN(C)CC1
<50%: all assays above

Cc1nc2nccnc2cc1NC(=O)c1ccc([N+](=O)[O-])cc1
<50%: all assays above
